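96-well plates; 48 h exposure; 5 concentrations. Endpoints by linear interpolation between flanking doses. Not reached: highest tested concentration assigned. GI50 = concentration required for 50% inhibition of growth.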 Activity calls are given as the source filed them. No stated cut-off is given here; in the data, active = GI50 up to about 1.1 µM and inactive = higher.
What was measured:
Assay in all cases: NCI tumour cell line growth inhibition, 48 h
[1] = test system: T47D
[2] = test system: OVCAR-5
[3] = test system: SK-MEL-28
[4] = test system: NCI-H226
[5] = test system: SK-OV-3
[6] = test system: SF-268
[7] = test system: SNB-75
[8] = test system: BT-549
[9] = test system: MDA-MB-231
[10] = test system: HCT-15
[11] = test system: UO-31
[12] = test system: SNB-19
[13] = test system: CAKI-1
[14] = test system: IGROV-1
[15] = test system: OVCAR-4
[16] = test system: SK-MEL-5
[17] = test system: SW-620
[18] = test system: COLO 205
[19] = test system: TK-10
[20] = test system: A549
[21] = test system: NCI-H522
[22] = test system: OVCAR-3
[23] = test system: ACHN
[24] = test system: RPMI-8226
[25] = test system: SK-MEL-2
[26] = test system: KM12
[27] = test system: UACC-62
[28] = test system: Malme-3M
[29] = test system: SN12C
[30] = test system: EKVX
[31] = test system: OVCAR-8
[32] = test system: HT-29
[33] = test system: Hs-578T
[34] = test system: UACC-257
[35] = test system: MDA-MB-435
[36] = test system: MDA-N
[37] = test system: NCI-H23
[38] = test system: HOP-62
[39] = test system: K562
[40] = test system: U-251
[41] = test system: RXF 393
[42] = test system: M14
[43] = test system: HOP-92
[44] = test system: PC-3
[45] = test system: 786-0
[46] = test system: SF-295
[47] = test system: HCT-116
[48] = test system: NCI/ADR-RES
[49] = test system: MCF7
[50] = test system: LOX IMVI
[51] = test system: CCRF-CEM
[52] = test system: SF-539
[53] = test system: MOLT-4
[54] = test system: A498
[55] = test system: SR
[56] = test system: HL-60
[57] = test system: DU-145

With `O=S(=O)(O)c1cc(/N=N/c2c(O)ccc3ccccc23)ccc1/C=C/c1ccc(/N=N/c2c(O)ccc3ccccc23)cc1S(=O)(=O)O` the GI50 [1] was > 100 µM (inactive), the GI50 [2] was > 100 µM (inactive) and the GI50 [3] was > 100 µM (inactive). For the same molecule, the GI50 [4] was > 100 µM (inactive), the GI50 [5] was > 100 µM (inactive) and the GI50 [6] was > 100 µM (inactive). The GI50 [7] was > 100 µM (inactive), the GI50 [8] was > 100 µM (inactive) and the GI50 [9] was 40.3 µM (inactive). For the same molecule, the GI50 [10] was > 100 µM, the GI50 [11] was > 100 µM (inactive) and the GI50 [12] was > 100 µM (inactive). For the same molecule, the GI50 [13] was > 100 µM (inactive), the GI50 [14] was 70.3 µM (inactive) and the GI50 [15] was > 100 µM (inactive). For the same molecule, the GI50 [16] was > 100 µM (inactive), the GI50 [17] was > 100 µM (inactive) and the GI50 [18] was > 100 µM (inactive). For the same molecule, the GI50 [19] was > 100 µM (inactive), the GI50 [20] was > 100 µM (inactive) and the GI50 [21] was > 100 µM (inactive). For the same molecule, the GI50 [22] was > 100 µM (inactive), the GI50 [23] was > 100 µM (inactive) and the GI50 [24] was > 100 µM (inactive). For the same molecule, the GI50 [25] was > 100 µM (inactive), the GI50 [26] was > 100 µM (inactive) and the GI50 [27] was > 100 µM (inactive). For the same molecule, the GI50 [28] was 26.9 µM (inactive), the GI50 [29] was > 100 µM (inactive) and the GI50 [30] was > 100 µM (inactive). For the same molecule, the GI50 [31] was > 100 µM (inactive), the GI50 [32] was > 100 µM (inactive) and the GI50 [33] was > 100 µM (inactive). The GI50 [34] was > 100 µM (inactive), the GI50 [35] was > 100 µM (inactive) and the GI50 [36] was > 100 µM (inactive). The GI50 [37] was > 100 µM (inactive), the GI50 [38] was > 100 µM (inactive) and the GI50 [39] was > 100 µM (inactive). The GI50 [40] was > 100 µM (inactive), the GI50 [41] was > 100 µM (inactive) and the GI50 [42] was 99.5 µM (inactive). The GI50 [43] was > 100 µM (inactive), the GI50 [44] was > 100 µM (inactive) and the GI50 [45] was > 100 µM (inactive). The GI50 [46] was > 100 µM (inactive), the GI50 [47] was > 100 µM (inactive) and the GI50 [48] was > 100 µM (inactive).
In the case of `COc1cc(S(=O)(=O)Nc2ccc(-c3csc(N4C(=O)CSC4c4cccc(Oc5ccccc5)c4)n3)cc2)ccc1Cl` (centres undefined), the GI50 [1] is reported as 7.48 µM (inactive), the GI50 [2] is reported as > 100 µM (inactive) and the GI50 [3] is reported as 23 µM (inactive). For the same molecule, the GI50 [4] was 32.1 µM (inactive), the GI50 [5] was 71 µM (inactive) and the GI50 [6] was 24.3 µM (inactive). The GI50 [7] was 58.1 µM (inactive), the GI50 [49] was 20.6 µM (inactive) and the GI50 [8] was 23.7 µM (inactive). The GI50 [10] was 61.7 µM, the GI50 [11] was 47.5 µM (inactive) and the GI50 [12] was 77.8 µM (inactive). The GI50 [13] was > 100 µM (inactive), the GI50 [14] was 50.7 µM (inactive) and the GI50 [15] was 52.6 µM (inactive). For the same molecule, the GI50 [16] was 32.8 µM (inactive), the GI50 [50] was 32.7 µM (inactive) and the GI50 [17] was 43.8 µM (inactive). For the same molecule, the GI50 [18] was 29.4 µM (inactive), the GI50 [51] was 23.8 µM (inactive) and the GI50 [21] was 24.2 µM (inactive). For the same molecule, the GI50 [22] was 64.3 µM (inactive), the GI50 [23] was > 100 µM (inactive) and the GI50 [52] was 31.9 µM (inactive). For the same molecule, the GI50 [24] was 39.2 µM (inactive), the GI50 [26] was 35.2 µM (inactive) and the GI50 [27] was 36.9 µM (inactive). The GI50 [28] was 43.4 µM (inactive), the GI50 [29] was 61.4 µM (inactive) and the GI50 [53] was 52 µM (inactive). The GI50 [54] was 59 µM (inactive), the GI50 [30] was 44.2 µM (inactive) and the GI50 [55] was 33.7 µM (inactive). The GI50 [31] was 47 µM (inactive), the GI50 [32] was 47 µM (inactive) and the GI50 [33] was 27.4 µM (inactive). For the same molecule, the GI50 [35] was 33.5 µM (inactive), the GI50 [56] was 21.1 µM (inactive) and the GI50 [36] was 23.9 µM (inactive). The GI50 [37] was 40.4 µM (inactive), the GI50 [38] was 74.3 µM (inactive) and the GI50 [39] was 31.9 µM (inactive). The GI50 [41] was 16.7 µM (inactive), the GI50 [42] was 53 µM (inactive) and the GI50 [43] was 46.7 µM (inactive). For the same molecule, the GI50 [44] was 32.7 µM (inactive), the GI50 [45] was 46.9 µM (inactive) and the GI50 [57] was 48.4 µM (inactive). The GI50 [46] was 65.8 µM (inactive), the GI50 [47] was 29.9 µM (inactive) and the GI50 [48] was > 100 µM (inactive).

Reference: ChEMBL document CHEMBL1201862, “PubChem BioAssay data set” (2004)
